Legend:
Type in all cases: in vivo, Sprague Dawley rats
ATP = ATP determination in serum and skeletal muscle (ELISA); settings: HFD rats
Experimental: Male Sprague Dawley rats aged 6-8 weeks were housed under a 12/12 h light/dark cycle at 22° C. and given free access to water and high-fat diet (HFD, 60% kcal from fat) for 12 weeks. After the 12 weeks, all rats were randomly divided into 3 groups of 8 animals. They were supplemented with or without DHB according to the following: • (1) non-supplement group (Con HFD only, Group 1); • (2) DHB supplement group (DHB+HFD, 100 mg/kg, Group 2); • (3) DHB supplement group (DHB+HFD, 200 mg/kg, Group 3). Based on the results of decreased fiber number and insulin resistance, the mitochondrial function in skeletal muscle might be also impaired. ATP and ROS levels in serum and skeletal muscle, which represented mitochondrial function, were further determined. ATP determination: The ATP concentration in the gastrocnemius muscle was measured using ELISA according to the manufacturer's instructions. Before the ELISA was tested, the gastrocnemius muscle lysates were first measured with a BCA protein assay kit, and the total protein concentration of each group was adjusted to the same by RIPA. The concentration of ATP was then calculated based on the absorption density determined at 450 nm.

soleus muscles = assay: HE staining of soleus, morphological changes of the skeletal muscle; settings: HFD rats, DHB supplementation groups, especially group 3 (200 mg/kg)
Experimental: (§1) Male Sprague Dawley rats aged 6-8 weeks were housed under a 12/12 h light/dark cycle at 22° C. and given free access to water and high-fat diet (HFD, 60% kcal from fat) for 12 weeks. After the 12 weeks, all rats were randomly divided into 3 groups of 8 animals. They were supplemented with or without DHB according to the following: • (1) non-supplement group (Con HFD only, Group 1); • (2) DHB supplement group (DHB+HFD, 100 mg/kg, Group 2); • (3) DHB supplement group (DHB+HFD, 200 mg/kg, Group 3).
(§2) Before the rats were sacrificed, half the rats in each group were injected with 0.75 IU/kg body weight insulin (i.p.) to activate glucose uptake and assess the insulin resistance in the skeletal muscle. Fifteen minutes later, all the rats were anesthetized with chloral hydrate; the soleus muscles were fixed in paraformaldehyde, and the gastrocnemius muscles were frozen immediately in liquid nitrogen and stored at −80° C. for protein-related experiments.
To evaluate the morphological changes of the skeletal muscle, HE staining of soleus was conducted. Hematoxylin-eosin (HE) staining: Soleus muscles were fixed in paraformaldehyde overnight, dehydrated in an ascending graded ethanol series, equilibrated with xylene, embedded in paraffin and sectioned into 5- to 10-μm slices. Then, the samples were dewaxed with xylene and a descending graded ethanol series. […]

[1] = Body fat percentage by nuclear magnetic resonance body composition analyzer in high-fat diet rats; settings: HFD rats, FIG. 1
Experimental: Male Sprague Dawley rats aged 6-8 weeks were housed under a 12/12 h light/dark cycle at 22° C. and given free access to water and high-fat diet (HFD, 60% kcal from fat) for 12 weeks. After the 12 weeks, all rats were randomly divided into 3 groups of 8 animals. They were supplemented with or without DHB according to the following: • (1) non-supplement group (Con HFD only, Group 1); • (2) DHB supplement group (DHB+HFD, 100 mg/kg, Group 2); • (3) DHB supplement group (DHB+HFD, 200 mg/kg, Group 3). Before supplementing DHB, the muscle content of all rats was measured by nuclear magnetic resonance body composition analyzer. And then all rats were administered DHB before each major meal once daily by gavage (i.g.) in normal saline solution for 4 months. The muscle content of all rats was tested by nuclear magnetic resonance body composition analyzer every month. […] FIG. 1 is a graph of percentage of body fat of three groups of rats (Con; DHB 100 mg/kg; DHB 200 mg/kg) every month. […] Thus, DHB supplementation could achieve the beneficial effects on weight loss and increasing muscle mass.

[2] = tested on: glucose transporter type 4 (GLUT4); assay: Insulin stimulating membrane translocation of GLUT4 in skeletal muscle by western blot; settings: HFD rats, DHB groups 100 and 200 mg/kg, especially higher dose; insulin 0.75 IU/kg i.p.; gastrocnemius muscle, FIG. 2
Experimental: as §1
Before the rats were sacrificed, half the rats in each group were injected with 0.75 IU/kg body weight insulin (i.p.) to activate glucose uptake and assess the insulin resistance in the skeletal muscle. […]
To assess that DHB could improve insulin resistance in the skeletal muscle, the insulin stimulating membrane translocation of glucose transporter type 4 (GLUT4) by the western blot analysis was measured and compared among the groups. […]
Western blot analysis: The concentration of protein in the gastrocnemius muscle was quantitated by piercing bicinchoninic acid (BCA), and 120 μg of total protein was electrophoresed on a 12% SDS polyacrylamide gel and electro-transferred onto Polyvinylidene difluoride (PVDF) membranes. […] The images were quantified using Image Analysis Software.

AMPK/SIRT1/PGC-1α = assay: Western blot of AMPK/SIRT1/PGC-1α protein expression in muscle tissue; settings: HFD rats, skeletal muscle
Experimental: as §1, §2
Protein sample preparation: For total protein extraction, 100 mg of the frozen gastrocnemius muscle was homogenized in radioimmunoprecipitation assay (RIPA) buffer (containing 0.2 μg/mL PMSF and 10 μg/mL phosphatase inhibitor) for 30 min and then centrifuged at 3,500 rpm×15 min and 12,000 rpm×15 min. The supernatants were extracted for the western blot analysis.
Western blot analysis: The concentration of protein in the gastrocnemius muscle was quantitated by piercing bicinchoninic acid (BCA), and 120 μg of total protein was electrophoresed on a 12% SDS polyacrylamide gel and electro-transferred onto Polyvinylidene difluoride (PVDF) membranes. Membranes were blocked with 5% (w/v) BSA for 2 h at room temperature and then incubated with primary antibodies overnight at 4° C. with slight shaking. After being washed with TBST three times, the membranes were incubated with a secondary antibody (1:2000) at room temperature for 2 h. The protein bands were visualized by enhanced chemiluminescence with a GENE Imaging system. The images were quantified using Image Analysis Software.
Western blot was used to check the protein expression of AMPK/SIRT1/PGC-1α in the muscle tissue.

ROS = assay: Reactive oxygen species (ROS) test in serum and skeletal muscle; settings: HFD rats, DHB 100 and 200 mg/kg
Experimental: Male Sprague Dawley rats aged 6-8 weeks were housed under a 12/12 h light/dark cycle at 22° C. and given free access to water and high-fat diet (HFD, 60% kcal from fat) for 12 weeks. After the 12 weeks, all rats were randomly divided into 3 groups of 8 animals. They were supplemented with or without DHB according to the following: • (1) non-supplement group (Con HFD only, Group 1); • (2) DHB supplement group (DHB+HFD, 100 mg/kg, Group 2); • (3) DHB supplement group (DHB+HFD, 200 mg/kg, Group 3). Based on the results of decreased fiber number and insulin resistance, the mitochondrial function in skeletal muscle might be also impaired. ATP and ROS levels in serum and skeletal muscle, which represented mitochondrial function, were further determined. Reactive oxygen species (ROS) test: Ten microliters of skeletal muscle or lysate or 10 μl of serum was added to 127.5 μl of reaction buffer in 96-well plates (containing 30 mM HEPES (pH 7.2), 200 mM KCl, 1 mM MgCl2, and 7.5 μl of 2,2′-azobis(2-methylpropionamidine) dihydrochloride). The same volume of ultrapure water was pipetted into the plate as a blank. The microplate was put into a fluorescence microplate reader at 35° C. 10 μl of the fluorescent probe H2DCF-DA was added to each well for a final concentration of 40 μM immediately before reading, and the level of ROS was detected at 488 and 525 nm.

## COc1ccc2c(c1OC)CN1CCc3cc4c(cc3C1=C2)OCO4 [DHB, dihydroberberine]
ATP; DHB 200 mg/kg, serum, FIG. 4a
  production of ATP in serum relative to the control group: 1.6 fold
ATP; DHB 200 mg/kg, skeletal muscle, FIG. 4c
  production of ATP in skeletal muscle relative to the control group: 2.7 fold
ATP; DHB treatment 100 and 200 mg/kg, serum, FIG. 4a
  production of ATP in serum: increased significantly
ATP; DHB treatment 100 and 200 mg/kg, skeletal muscle, FIG. 4c
  production of ATP in skeletal muscle: increased significantly
Soleus muscles; FIG. 3a
  number of muscle fibers compared with the control group: increased dramatically
Soleus muscles; FIG. 3b
  relative cross-sectional area of the muscle fibers versus control group: dropped below that of the control group
[1]; DHB 100 and 200 mg/kg i.g. once daily for 4 months
  reduction in body fat compared to control group: greater reduction in body fat
[1]; higher dose group (200 mg/kg) i.g. once daily, 4 months
  decrease of percentage of body fat versus beginning of supplementation: about 52%
[2]
  membrane translocation of GLUT4 after insulin stimulation relative to control group: remarkably increased
AMPK/SIRT1/PGC-1α; DHB 100 and 200 mg/kg vs control, GAPDH as internal reference, FIG. 4e
  total AMPK protein expression among the three groups: no significant difference
AMPK/SIRT1/PGC-1α; DHB groups, especially group 3 (200 mg/kg), FIG. 4e
  protein expression of p-AMPK: dramatically upregulated
AMPK/SIRT1/PGC-1α; group 3 (DHB 200 mg/kg), FIG. 4f
  protein expression of SIRT1 relative to the control group: approximately 1.9 fold
AMPK/SIRT1/PGC-1α; group 3 (DHB 200 mg/kg), FIG. 4g
  protein expression of PGC-1α relative to the control group: ~2 fold
ROS; serum, FIG. 4b
  ROS level in serum: inhibit increased ROS effectively
ROS; skeletal muscle, FIG. 4d
  ROS level in skeletal muscle: inhibit increased ROS effectively
